Data: patent US6326465A, “Immunomodulatory polypeptides derived from the invariant chain of MHC class II” (The Johns Hopkins University, priority 1998, dated 2001)

Tests used:
[1] = tested on: Lewis syngeneic PHA blasts; test: Lysis of PHA lymphoblast target cells by syngeneic GVHD effector T cells; assay type: cell-based, rat; conditions: target cells loaded with 10 uM; versus diluent treated target cells
Description: FIG. 1. Graph showing comparison of percent specific lysis conferred by truncated variants of CLIP. Lewis syngeneic PHA blasts were force-loaded with the truncated variants of CLIP (10 μmol/L, 1 hr, 4° C.) prior to assay. Effector T cells (nylon wool nonadherent) were derived from animals with syngeneic GVHD that were clonally expanded in thymectomized secondary Lewis recipients.
Truncated peptides from the rat MHC Class II invariant chain V0 : (sequence aa 82-103 […] (SEQ ID NO:1)), V1: aa 90-104 (SEQ ID NO:2), V2: 86-100 (SEQ ID NO:3), V3: 90-100(SEQ ID NO:4) were synthesized by Quality Controlled Biochemicals Co. (Hopkinton, Ma.) and purified by HPLC.^15,23 The peptides (>92% purity) were dissolved in RPMI 1640 prior to use. Force loading of CLIP was accomplished by incubating the cells in 10 μM of the peptide for 1 hr. at 4° C. […] Antibody was prepared to the CLIP peptide by Quality Controlled Biochemicals Co. The peptides were conjugated to keyhole limpet hemocyanin (KLH). Rabbits were immunized with the peptide-KLH conjugate. The antibody was affinity purified using peptide conjugated sepharose matrix columns.
We first evaluated whether CLIP in rats is recognized by the autoreactive T cells associated with CsA-induced syngeneic GVHD by comparing the lysis of target cells after various pretreatment conditions.
Target cells were loaded with the CLIP variants (10 uM) and evaluated for […]

tumor cells = test: Cytokine modulation of CsA-induced SGVHD in the rat model; assay type: in vivo; conditions: for cure of animals: animals given 5×10^3 tumor cells; for enhancement of the antitumor effect of SGVHD: rat model
target cells = assay type: cell-based, rat
CRL 1662 myeloma cells = test: Antitumor activity after adoptive transfer of syngeneic GVHD effector T cells; assay type: in vivo, rat; conditions: with syngeneic GVHD effector cells; […]10^4 CRL 1662 cells; cytokines for ten days
Description: Nylon wool nonadherent spleen cells (50×10^6) from Lou M animals with syngeneic GVHD were adoptively transferred into secondary Lou M recipients (irradiated, bone marrow reconstituted) challenged with 2.5×10^4 CRL 1662 myeloma cells. […] Survival was assessed and log tumor cell kill was estimated from dose response studies (see Table 6).

| Substance | cure of animals (tumor cells) | enhancement of the antitumor effect of SGVHD (tumor cells) | also measured |
| --- | --- | --- | --- |
| KPCSP(R) |  |  | Enhancement of Target Cell Recognition [1]: +++ (enhancement representing at least a >25% increase in specific killing) |
| interferon-α | about half | 1-2 logs |  |
| staphylococcal enterotoxin β [SEB] |  |  | ability of effector T lymphocytes to recognize and lyse the target cells (target cells): completely inhibited; preventing recognition and lysis (target cells): ineffective |
| γ-interferon: cytokine, 50,000 U/d | about half | 1-2 logs | Estimated Log Tumor Cell Kill (CRL 1662 myeloma cells): 2.5-3.0 |
